Results from US20030119813A1, “Derivatives of pyrimido[6,1-a]isoquinolin-4-one” (priority 2001, published 2003).
pIC50: −log10 of the molar value.

How the values were obtained:
[1] = tested on: guinea-pig isolated trachea; experiment: Superfusion of guinea-pig tracheal rings, contraction to electrical field stimulation; conditions: for inhibition of contractile responses, duration of action: electrical-induced contraction of guinea-pig isolated trachea; for OT50 (onset time: time to reach 50% of the maximum inhibition of the contractile response) / RT50 (recovery time: time for 50% reversal of the maximum inhibition after terminating exposure): superfused guinea-pig trachea, electrical field stimulation, 10 μM; for OT50 (onset time: time to reach 50% of the maximum inhibition of the contractile response): mean and s.e. mean of three observations; for RT50 (recovery time: time for 50% reversal of the maximum inhibition after terminating exposure): washout
Procedure: Superfusion of guinea-pig tracheal rings was performed according to a previously described method (Coleman et al. Pulmonary Pharmacology 9 107-117 (1996)). Briefly, guinea-pig tracheal preparations were cut into rings and then opened by sectioning the ring opposite the smooth muscle and suspended between two platinum electrodes under 1 g tension. The tissues were superfused at a rate of from 1 to 3.25 ml/min with Krebs-Henseleit solution at 37° C. containing the cyclooxygenase inhibitor, indomethacin (5 μM) and bubbled with 95% O2 and 5% CO2. Tracheal preparations were allowed to equilibrate for 40 minutes before commencement of electrical stimulation, delivered as a 10 s train of square wave pulses at 3 Hz, 0.1 ms duration and 20V (approx 400 mamps) generated every 100 sec by means of physiological square wave-stimulator. The compounds of the present invention were superfused at a rate of 0.2 to 0.3 ml/min ad contractile responses to electrical field stimulation were recorded on a Macintosh computer using MacLab sor vare. The drug was prepared in DMSO and diluted in Krebs-Henseleit solution which yielded a final superfusion concentration of 0.05 to 0.1% DMSO.
The duration of action was determined and expressed as onset time (OT50) and recovery time (RT50).

[2] = tested on: guinea-pig tracheal rings; experiment: Organ bath experiments, guinea-pig tracheal rings, electrical field stimulation; conditions: final concentration 10 μM, n=1
Procedure: Guinea-pig tracheal rings were suspended in organ baths under 1 g tension between two electrodes and subjected to electrical field stimulation (3 Hz, 0.1 ms duration and 20V (approx 400 mAmps) generated every 100 sec by means of physiological square wave-stimulator. The compounds of Examples 1, 2 and 8 were dissolved in DMSO containing Tween 80 (10%) and distilled water (0.01M), which were then added to the organ bath to give a final concentration of 10 μM.

[3] = tested on: human mononuclear cells stimulated by PHA; experiment: Proliferation of human mononuclear cells stimulated by PHA ([3H]-thymidine); type: cell-based; conditions: PHA 2 μg/ml, n=6, read-out: IC50 against proliferation of human mononuclear cells stimulated with PHA
Procedure: Normal healthy volunteers underwent phlebotomy and 25 ml of blood was collected. Mononuclear cells were separated and purified according to the method of Banner et al. (Banner et al. Br. J. Pharmacol. 116 3169-3174 (1995)). Human peripheral mononuclear cells (100,000 per well) were stimulated for 24 h with phytohaemagglutinin (PHA, 2 μg/ml) in the absence or presence of the compounds of Examples 1, 2 and 8 (0.001-100 μM) at 37° C. in a 95% air, 5% CO2 atmosphere. Twenty four hours later, [^3H]-thymidine (0.1 μCi) was added to each well and the cells were incubated for a further 24 h period. Cells were then harvested onto glass fibre filters using a cell harvester (ICN Flow, Buckinghamshire) and counted in a scintillation counter.

PDE3 (human platelet) = target: T1, PDE3 (human platelet) (Homo sapiens, UniProt Q14432); experiment: PDE3 inhibition; type: biochemical
T1 construct: (human platelet); from tissue; host or cells: human platelets
T1 sequence (Q14432 whole entry): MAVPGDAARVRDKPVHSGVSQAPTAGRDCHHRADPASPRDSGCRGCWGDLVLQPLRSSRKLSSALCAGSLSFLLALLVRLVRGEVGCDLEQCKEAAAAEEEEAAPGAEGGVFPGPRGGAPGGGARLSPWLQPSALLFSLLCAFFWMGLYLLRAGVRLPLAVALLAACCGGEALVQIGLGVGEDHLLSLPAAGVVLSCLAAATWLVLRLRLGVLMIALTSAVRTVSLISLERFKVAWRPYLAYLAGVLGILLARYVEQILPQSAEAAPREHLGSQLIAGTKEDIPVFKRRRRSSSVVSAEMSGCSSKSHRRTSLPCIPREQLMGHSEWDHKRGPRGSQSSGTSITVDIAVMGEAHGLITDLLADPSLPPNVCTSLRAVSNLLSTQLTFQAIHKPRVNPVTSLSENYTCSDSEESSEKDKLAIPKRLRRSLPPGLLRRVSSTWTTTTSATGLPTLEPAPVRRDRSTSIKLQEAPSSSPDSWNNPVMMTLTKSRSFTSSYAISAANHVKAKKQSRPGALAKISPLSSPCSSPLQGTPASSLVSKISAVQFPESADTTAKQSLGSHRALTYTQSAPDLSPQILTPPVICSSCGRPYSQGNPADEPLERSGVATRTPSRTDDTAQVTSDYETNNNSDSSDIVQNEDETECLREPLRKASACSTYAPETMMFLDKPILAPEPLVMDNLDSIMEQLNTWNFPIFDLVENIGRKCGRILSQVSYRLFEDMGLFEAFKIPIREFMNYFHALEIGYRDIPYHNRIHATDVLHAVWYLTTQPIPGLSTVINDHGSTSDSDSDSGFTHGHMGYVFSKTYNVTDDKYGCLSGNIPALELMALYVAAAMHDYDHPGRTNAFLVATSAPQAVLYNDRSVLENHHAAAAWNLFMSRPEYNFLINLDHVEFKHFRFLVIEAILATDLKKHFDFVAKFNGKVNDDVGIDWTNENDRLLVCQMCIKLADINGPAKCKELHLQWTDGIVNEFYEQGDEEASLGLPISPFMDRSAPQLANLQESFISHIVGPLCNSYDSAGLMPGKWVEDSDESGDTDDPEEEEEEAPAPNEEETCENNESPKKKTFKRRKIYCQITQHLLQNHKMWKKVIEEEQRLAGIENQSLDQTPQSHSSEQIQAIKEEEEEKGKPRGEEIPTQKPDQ

PDE4 (human neutrophil) = experiment: PDE4 inhibition; type: biochemical
[4] = tested on: LPS induced TNF-α release from human monocytes; experiment: LPS induced TNF-α release from human monocytes; type: cell-based; conditions: Monocyte
Procedure: 6,7-Dihydro-2-(2,6-diisopropylphenoxy)-9,10-dimethoxy-4H-pyrimido-[6,1-a]isoquinolin-4-one (compound of Example 2) was tested for effects on LPS induced TNF-α release from human monocytes.

[5] = tested on: histamine induced bronchospasm; experiment: Histamine induced bronchospasm, inhaled dry powder, guinea-pig; type: in vivo
Procedure: 1. The above compound was tested in a model of histamine induced bronchospasm. Conscious guinea-pigs were exposed to dry powder (micronised) of the compound. The drug was blended with lactose so that the final concentration was 0.25, 2.5 and 25%. At various times after exposure to drug the animals were anaesthetised and challenged with varying doses of histamine. Total airway resistance and mean arterial blood pressure were recorded.

[6] = tested on: mean arterial blood pressure; experiment: Intravenous administration to urethane anaesthetised guinea-pigs, mean arterial blood pressure; type: in vivo, guinea-pig; conditions: 0.1 to 300 μg/kg
Procedure: 2. […] The compound was dissolved in DMSO then diluted with saline (there was evidence that the compound had come out of solution).

[7] = tested on: recruitment of eosinophils to the lungs; experiment: Antigen induced eosinophilia in the ovalbumin sensitised guinea-pig; type: in vivo; conditions: 10 mg/kg orally 1 hour prior to antigen challenge, ovalbumin sensitised guinea-pigs

Row | SMILES | inhibition of contractile responses, duration of action [1] | OT50 (onset time: time to reach 50% of the maximum inhibition of the contractile response) [1] [min] | RT50 (recovery time: time for 50% reversal of the maximum inhibition after terminating exposure) [1] [min] | also measured
1 | COc1cc2c(cc1OC)-c1cc(Oc3ccccc3CC(C)C)nc(=O)n1CC2 [Example 10, 9,10-Dimethoxy-2-(2-isobutylphenoxy)-6,7-dihydro-4H-pyrimido[6,1-a]isoquinolin-4-one] | inhibit the contractile responses with a long duration of action | 17.5 ± 1.25 | >300 | –
2 | COc1cc2c(cc1OC)-c1cc(Oc3c(Cl)cccc3Cl)nc(=O)n1CC2 [Example 8, 2-(2,6-Dichlorophenoxy)-6,7-dihydro-9,10-dimethoxy-4H-pyrimido-[6,1-a]isoquinolin-4-one] | – | – | – | inhibition of the contractile response to electrical field stimulation [2]: complete inhibition; pIC50 [3]: 5.09
3 | COc1cc2c(cc1OC)-c1cc(=Nc3c(C)cc(C)cc3C)n(C)c(=O)n1CC2 [Trequinsin, 9,10-dimethoxy-3-methyl-2-mesitylimino-2,3,6,7-tetrahydro-4H-pyrimido[6,1-a]isoquinolin-4-one, reference compound] | – | 14 | 146 | –
4 | COc1cc2c(cc1OC)-c1cc(Oc3c(C)cccc3C)nc(=O)n1CC2 [Example 1, 6,7-Dihydro-2-(2,6-dimethylphenoxy)-9,10-dimethoxy-4H-pyrimido-[6,1-a]isoquinolin-4-one] | – | – | – | inhibition of the contractile response to electrical field stimulation [2]: complete inhibition; pIC50 [3]: 5.29
5 | COc1cc2c(cc1OC)-c1cc(Oc3ccccc3C3CCCC3)nc(=O)n1CC2 [Example 13, 2-(2-Cyclopentylphenoxy)-9,10-dimethoxy-6.7-dihydro-4H-pyrimido[6,1-a]-isoquinolin-4-one] | inhibit the contractile responses with a long duration of action | 18.6 ± 1.5 | >300 | –
6 | COc1cc2c(cc1OC)-c1cc(Oc3c(C(C)C)cccc3C(C)C)nc(=O)n1CC2 [Example 2, 6,7-Dihydro-2-(2,6-diisopropylphenoxy)-9,10-dimethoxy-4H-pyrimido-[6,1-a]isoquinolin-4-one] | inhibit the contractile responses with a long duration of action | 24.9 ± 5.0 | >240 | inhibition of the contractile response to electrical field stimulation [2]: complete inhibition; pIC50 [3]: 5.54; pIC50 (PDE3 (human platelet)): 6.97; pIC50 (PDE4 (human neutrophil)): 5.92; pIC50 ([4]; n = 6): 6.60; protection against histamine induced bronchospasm (total airway resistance) ([5]; conscious guinea-pigs exposed to dry powder (25% in lactose)): significant protection against histamine induced bronchospasm; effect on mean arterial blood pressure ([5]; guinea-pigs, inhaled dry powder (25%)): without changing mean arterial blood pressure; effect on mean arterial blood pressure [6]: dose dependant reduction in mean arterial blood pressure; recruitment of eosinophils to the lungs following antigen challenge [7]: significantly inhibited
7 | COc1ccc([C@H](Cc2ccncc2)c2ccccc2)cc1OC1CCCC1 [CDP 840] | – | – | – | pIC50 ([4]; n = 6): 7.04
8 | CN/C(=N\c1ccc(C2=NNC(=O)CC2C)cc1)NC#N (centres unmarked) [Siguazodan] | – | – | – | pIC50 ([4]; unit printed in the cell beside the value): < 4.00
9 | CCc1ccccc1Oc1cc2n(c(=O)n1)CCc1cc(OC)c(OC)cc1-2 [Example 12, 9,10-Dimethoxy-2-(2-ethylphenoxy)-6,7-dihydro-4H-pyrimido[6,1-a]isoquinolin-4-one] | inhibit the contractile responses with a long duration of action | 9.7 ± 0.6 | 263 | –
10 | COc1cc2c(cc1OC)-c1cc(Oc3ccccc3C(C)(C)C)nc(=O)n1CC2 [Example 11, 2-(2-tert-butylphenoxy)-9,10-dimethoxy-6,7-dihydro-4H-pyrimido[6,1-a]isoquinolin-4-one] | inhibit the contractile responses with a long duration of action | 14.7 ± 1.33 | >300 | –
11 | CCc1cccc(CC)c1Oc1cc2n(c(=O)n1)CCc1cc(OC)c(OC)cc1-2 [Example 3, 2-(2,6-diethylphenoxy)-6,7-dihydro-9,10-dimethoxy-4H-pyrimido-[6,1-a]isoquinolin-4-one] | inhibit the contractile responses with a long duration of action | 17 ± 1 | >240 | –
